From patent EP0553186B1, “METHOD FOR PRODUCING T H?-I[…] T LYMPHOCYTES” (IMMUNEX CORPORATION, priority 1990, dated 1992)

System: CD8^+ T cell clone T81
Assay: Outgrowth of T81 CTL under G418 drug selection
Assay type: cell-based, mouse
Details: parental T81 cells, doses used for selection
Method: • A. Selection of CD8^+T cell clone T81 transduced with retroviral vector L.IL-1RSN encoding murine IL-1R. The retroviral vector L.IL-1RSN encoding the murine IL-1 receptor was introduced into the tumor specific CD3^+, CD8^+ T cell clone T81 as follows. T81 is specific for an antigen expressed on the K1735 mouse melanoma cell line. T81 was propagated by stimulation every 8-10 days with tumor antigen and irradiated syngeneic splenocytes as feeder cells. Recombinant IL-2 (50 U/ml) was added to the cultures 48 hours following stimulation. […] The cells were analyzed for M5 binding on a Beckton-Dickinson FACscan analyzer. […] The IL-1 receptors on the T81 cells infected with the L.IL-1RSN vector were analyzed for ^125I-IL-1α binding as previously described (Dower et al., Nature (Lond) 324 :266,1986). […] Nonspecific binding of ^125I-IL-1 was measured by incubation in the presence of an excess of unlabelled IL-1. At the end of the incubation, bound and free ^125I-IL-1 were separated by centrifugation over a phthalate oil mixture and the amount of radiolabel in each fraction measured. The data were corrected for non-specific binding and then analyzed by nonlinear least square fitting to estimate the number of IL-1R/cell. […]

With `CN[C@@H]1[C@@H](O)[C@@H](O[C@@H]2[C@@H](O)[C@H](O[C@H]3O[C@H]([C@@H](C)O)[C@@H](O)[C@H](O)[C@H]3N)[C@@H](N)C[C@H]2N)OC[C@]1(C)O` [G418] the “toxicity of G418 to cells” value was “toxic to the parental cells”.
